The values that follow come from paper PMC6385203, “Mutations in the palm domain disrupt modulation of acid-sensing ion channel 1a currents by neuropeptides” (Scientific Reports, 2019).

Peptide text beside a SMILES is read from it.

This test deals with T1, ASIC1a N416C (Homo sapiens, UniProt P78348, N416C).
T1 construct: expressed in transfected cells; host or cells: Xenopus laevis oocytes injected with cRNA
T1 sequence (P78348 1-528 N416C): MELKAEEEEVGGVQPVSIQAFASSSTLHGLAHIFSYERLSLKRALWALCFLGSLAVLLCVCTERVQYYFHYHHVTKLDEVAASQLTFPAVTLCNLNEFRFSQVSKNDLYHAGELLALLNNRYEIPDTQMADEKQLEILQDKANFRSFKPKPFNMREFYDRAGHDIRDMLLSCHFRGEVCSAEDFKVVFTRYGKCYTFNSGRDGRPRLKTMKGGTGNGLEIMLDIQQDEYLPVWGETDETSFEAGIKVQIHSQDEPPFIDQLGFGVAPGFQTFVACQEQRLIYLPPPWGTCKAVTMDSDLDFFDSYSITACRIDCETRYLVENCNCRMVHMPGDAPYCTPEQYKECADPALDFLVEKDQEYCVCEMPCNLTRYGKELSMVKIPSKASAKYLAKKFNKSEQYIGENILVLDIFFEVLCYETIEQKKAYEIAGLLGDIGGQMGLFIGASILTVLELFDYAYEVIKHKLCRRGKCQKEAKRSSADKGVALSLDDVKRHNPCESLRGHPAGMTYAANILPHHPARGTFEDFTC
Description: Disappearance of FRRFa-induced Isust on washout, N416C. The test is classed as cell-based. The settings on record: washout after 50 μM FRRFa 45 s, n = 9. On the procedure:
Figure 6 Mutations of the palm change FRRFa modulation of ASIC1a. Mutants containing “-ET” in their name had been exposed during 3 min to 1 mM MTSET prior to the experiment. (a) Representative current traces of the mutant E418C in the absence and presence of 50 μM FRRFa. (b) Bar graph of the Isust/Ipeak ratio induced by pH5 of WT and mutants as indicated (n = 5–41). For (b,g–i) *p < 0.05; **p < 0.01, ***p < 0.001, ****p < 0.0001, different from WT. (c) Ratio of 50 μM FRRFa-induced increase in Isust/Ipeak (n = 5–41). (d) Ratio of 500 μM FRRFa-induced increase in Isust/Ipeak (n = 5–11). For (b–d) ^#p < 0.05; ^##p < 0.01; ^###p < 0.001; ^####p < 0.0001; ratio different from the ratio in WT. (e) FRRFa concentration-response curve of the Isust/Ipeak current ratio induced by pH5 in oocytes expressing N416C, n = 8. The WT curve is shown for comparison (n = 7–11). (f) Time course of disappearance of the FRRFa-induced sustained current in the N416C mutant and in WT. 50 μM FRRFa was applied for 45 s, and then washed out. […]
Electrophysiological measurements were performed 1–2 days after cRNA injection. Ion currents were recorded using two-electrode voltage-clamp at a holding potential of −60 mV with a Dagan TEV-200 amplifier (Minneapolis, MN). […] The amplitude of the sustained current was measured in the last two seconds of the pH5 perfusion. […]

In the case of `N=C(N)NCCC[C@H](NC(=O)[C@H](CCCNC(=N)N)NC(=O)[C@@H](N)Cc1ccccc1)C(=O)N[C@@H](Cc1ccccc1)C(N)=O` [FRRFa, Phe-Arg-Arg-Phe-amide] (H-FRRF-NH2), the koff – broadly, the rate constant with which the complex falls apart – was 0.027 ± 0.003 s⁻¹.
